Source: patent US8927484B2, “Antiviral compounds” (Gilead Sciences, Inc., priority 2009, dated 2015)

Experiments:
[1] = test system: Replicon cells harboring H77 (genotype 1a) or Con1 (genotype 1b) HCV RNA and Renilla luciferase reporter; assay: High Throughput Replicon Assay (HTBS); type: cell-based
Protocol: High Throughput Replicon Assay (HTBS)
Replicon cells harboring H77 (genotype 1a) or Con1 (genotype 1b) HCV RNA and Renilla luciferase reporter were seeded in 384-well black plates at a density of 1.6×10^3 cells per well in 90 μl of DMEM culture medium, excluding G-418. Compounds were serially diluted in 100% DMSO and added to cells at a 1:225 dilution, achieving a final concentration of 0.44% DMSO in a total volume of 90 μL with a Biotek uFlow Workstation. Cell plates were incubated at 37° C. with 5% CO2 for 3 days, after which culture media were removed and cells were assayed for luciferase activity as a marker for replication level. Luciferase expression was measured using Dual-Glo luciferase assay reagents (Promega, Madison, Wis.). Briefly, 20 μL of Dual-Glo luciferase buffer was added to lyse the cells for 10 min and subsequently 20 μL of a diluted Dual-Glo Stop & Glo substrate (1:100) was added to each well. Luminescence signal was measured on a Perkin Elmer Envision Plate Reader after incubation for 10 minute. Luciferase levels were converted into percentages relative to the untreated controls (defined as 100%) and data were fit to the logistic dose response equation y=a/(1+(x/b)^c) using XLFit4 software (IDBS, Emeryville, Calif.). EC50 values were calculated from the resulting equations.

HCV NS3 protease = target: T1, HCV NS3 protease (Hepatitis C virus genotype 1a, UniProt P27958); assay: HCV NS3 Protease IC50 Determination (FRET); type: biochemical; details: result in words
T1 construct: 2-10 nM of purified NS3 protease domains were pre-incubated
T1 sequence (P27958 1027-1208): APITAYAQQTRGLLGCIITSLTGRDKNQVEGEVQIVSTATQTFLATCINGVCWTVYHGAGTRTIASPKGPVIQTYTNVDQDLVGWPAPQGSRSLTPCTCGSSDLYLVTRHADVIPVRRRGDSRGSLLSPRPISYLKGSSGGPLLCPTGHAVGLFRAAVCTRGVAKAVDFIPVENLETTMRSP

Row | SMILES | activity in the cellular assay ([1]; result in words) | activity in the enzymatic assay (HCV NS3 protease) | inhibition at 1 µM ([1]; 72 h, read-out: INH @1 μM (Mean)) [%]
1 | CC[C@@H]1C[C@]1(NC(=O)[C@@H]1C[C@@H](OC(=O)N2Cc3cccc(F)c3C2)[C@H]2CCCC(=O)N21)C(=O)NS(=O)(=O)C1CC1 [Example 90] | fails to demonstrate optimal activity | fails to demonstrate optimal activity | –
2 | C=C[C@@H]1C[C@]1(NC(=O)[C@@H]1C[C@@H](Oc2cc(-c3nc(C(C)C)cs3)nc3c(Cl)c(OCCN4CCOCC4)ccc23)[C@H]2CN(C(=O)CC(C)(C)C)[C@H](C(C)C)C(=O)N21)C(=O)NS(=O)(=O)C1CC1 [Example 19] | – | – | > 55
